# Data from PMC7561186, “Rational design of balanced dual-targeting antibiotics with limited resistance” (PLoS Biology, 2020).
# Read-outs that look alike come from different tables or passages of the source.
# Test system: S. aureus clinical isolates
# Test: microbe, parasite or virus in culture
# Assay type: cell-based
# Details: Staphylococcus aureus, read-out: MIC
smiles,measurement,setting,value
Cc1[nH]c(C(=O)Nc2nc3ccc(C(=O)O)cc3s2)c(Cl)c1Cl [ULD1],MIC,"MRSA, S. aureus IHMA 1588127, MRSA / VSSA",0.5 µg/mL
same,MIC,"MRSA, S. aureus IHMA 1591462, MRSA / VSSA",0.25 µg/mL
same,MIC,"MRSA, S. aureus IHMA 1592755, MRSA / VSSA",0.5 µg/mL
same,MIC,"MRSA, S. aureus IHMA 1592776, MRSA / VSSA",0.5 µg/mL
same,MIC,"MRSA, S. aureus IHMA 1597106, MRSA / VSSA",1 µg/mL
same,MIC,"MRSA, S. aureus IHMA 1602095, MRSA / VSSA",0.5 µg/mL
same,MIC,"MRSA, S. aureus IHMA 1611170, MRSA / VSSA",0.5 µg/mL
same,MIC,"MRSA, S. aureus IHMA 1611612, MRSA / VSSA",0.5 µg/mL
same,MIC,"MRSA, S. aureus IHMA 1612228, MRSA / VSSA",0.5 µg/mL
same,MIC,"MRSA, S. aureus IHMA 1620441, MRSA / VSSA",0.5 µg/mL
same,MIC,"MRSA, S. aureus IHMA 1621638, MRSA / VSSA",1 µg/mL
same,MIC,"MRSA, S. aureus IHMA 1622252, MRSA / VSSA",1 µg/mL
same,MIC,"MRSA, S. aureus IHMA 1622527, MRSA / VSSA",0.25 µg/mL
same,MIC,"MRSA, S. aureus IHMA 1666371, MRSA / VSSA",0.5 µg/mL
same,MIC,"MRSA, S. aureus IHMA 1695391, MRSA / VSSA",0.25 µg/mL
same,MIC,"MRSA, S. aureus IHMA 1703428, MRSA / VSSA",1 µg/mL
same,MIC,"MRSA, S. aureus IHMA 1720350, MRSA / VSSA",1 µg/mL
same,MIC,"MRSA, S. aureus IHMA 1732989, MRSA / VSSA",1 µg/mL
same,MIC,"MRSA, S. aureus IHMA 1742231, MRSA / VSSA",0.5 µg/mL
same,MIC,"MRSA, S. aureus IHMA 1766357, MRSA / VSSA",0.25 µg/mL
same,MIC,"MSSA / NRS 12 / VISA, S. aureus IHMA 1308244, NRS12, MSSA / VISA",1 µg/mL
same,MIC,"MSSA / NRS 13 / VISA, S. aureus IHMA 1308245, NRS13, MSSA / VISA",1 µg/mL
same,MIC,"MSSA / NRS 14 / VISA, S. aureus IHMA 1308246, NRS14, MSSA / VISA",1 µg/mL
same,MIC,"MSSA / NRS 17 / VISA, S. aureus IHMA 1308247, NRS17, MSSA / VISA",1 µg/mL
same,MIC,"MSSA / NRS 28 / VISA, S. aureus IHMA 1308249, NRS28, MSSA / VISA",1 µg/mL
same,MIC,"MSSA / NRS 52, S. aureus IHMA 1308252, NRS52, MSSA / VSSA* (*Expected VAN intermediate, confirmed VAN susceptible twice), test date 2018-11-07",0.12 µg/mL
same,MIC,"MSSA / USA100 / VRSA, S. aureus IHMA 672236, VRS6, MSSA / VRSA, USA100",0.25 µg/mL
same,MIC,"MSSA, S. aureus IHMA 1563826, MSSA / VSSA",0.5 µg/mL
same,MIC,"MSSA, S. aureus IHMA 1565492, MSSA / VSSA",0.25 µg/mL
same,MIC,"MSSA, S. aureus IHMA 1569499, MSSA / VSSA",1 µg/mL
same,MIC,"MSSA, S. aureus IHMA 1569754, MSSA / VSSA",0.25 µg/mL
same,MIC,"MSSA, S. aureus IHMA 1574202, MSSA / VSSA",0.5 µg/mL
same,MIC,"MSSA, S. aureus IHMA 1575652, MSSA / VSSA",0.5 µg/mL
same,MIC,"MSSA, S. aureus IHMA 1575779, MSSA / VSSA",1 µg/mL
same,MIC,"MSSA, S. aureus IHMA 1576329, MSSA / VSSA",1 µg/mL
same,MIC,"MSSA, S. aureus IHMA 1577800, MSSA / VSSA",0.5 µg/mL
same,MIC,"MSSA, S. aureus IHMA 1578560, MSSA / VSSA",1 µg/mL
same,MIC,"MSSA, S. aureus IHMA 1580233, MSSA / VSSA",0.25 µg/mL
same,MIC,"MSSA, S. aureus IHMA 1580925, MSSA / VSSA",0.25 µg/mL
same,MIC,"MSSA, S. aureus IHMA 1580955, MSSA / VSSA",1 µg/mL
same,MIC,"MSSA, S. aureus IHMA 1582586, MSSA / VSSA",1 µg/mL
same,MIC,"MSSA, S. aureus IHMA 1582691, MSSA / VSSA",0.25 µg/mL
same,MIC,"MSSA, S. aureus IHMA 1584230, MSSA / VSSA",1 µg/mL
same,MIC,"MSSA, S. aureus IHMA 1587279, MSSA / VSSA",0.5 µg/mL
same,MIC,"MSSA, S. aureus IHMA 1591459, MSSA / VSSA",0.5 µg/mL
same,MIC,"MSSA, S. aureus IHMA 1592749, MSSA / VSSA",1 µg/mL
same,MIC,"MSSA, S. aureus IHMA 1592751, MSSA / VSSA",0.5 µg/mL
same,MIC,"MSSA, S. aureus IHMA 1594297, MSSA / VSSA",1 µg/mL
same,MIC,"MSSA, S. aureus IHMA 1597120, MSSA / VSSA",1 µg/mL
same,MIC,"MSSA, S. aureus IHMA 1597125, MSSA / VSSA",1 µg/mL
same,MIC,"MSSA, S. aureus IHMA 1599157, MSSA / VSSA",1 µg/mL
same,MIC,"MSSA, S. aureus IHMA 1599506, MSSA / VSSA",0.12 µg/mL
same,MIC,"MSSA, S. aureus IHMA 1602078, MSSA / VSSA",0.5 µg/mL
same,MIC,"MSSA, S. aureus IHMA 1604586, MSSA / VSSA",0.5 µg/mL
same,MIC,"MSSA, S. aureus IHMA 1604609, MSSA / VSSA",0.5 µg/mL
same,MIC,"MSSA, S. aureus IHMA 1609919, MSSA / VSSA",0.5 µg/mL
same,MIC,"MSSA, S. aureus IHMA 1622864, MSSA / VSSA",0.5 µg/mL
same,MIC,"MSSA, S. aureus IHMA 1626392, MSSA / VSSA",1 µg/mL
same,MIC,"MSSA, S. aureus IHMA 1713793, MSSA / VSSA",1 µg/mL
